Drawing on patent publication US8546608B2, “Proteasome inhibitors and methods of using the same” (Cephalon, Inc., priority 2003, dated 2013), this text covers IC50 and EC50 for 27 compounds.

The target of experiment [1] is T1, 20S Human Erythrocyte Proteasome (HEP) (Homo sapiens, UniProt P20618+P28074).
T1 construct: 20S Human Erythrocyte Proteasome (HEP), purchased from Immatics Biotechnologies Inc; purchased Immatics Biotechnologies Inc., Tübingen, Germany; host or cells: human erythrocytes (natural source)
Kind of experiment: Chymotrypsin-like activity of 20S Human Erythrocyte Proteasome (HEP), IC50 determination. The experiment is classed as biochemical. Conditions: assay of Example C, inhibition of HEP. The method in brief: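 20S proteasome at 0.2 μg/mL (about 0.6 nM catalytic sites) in 20 mM Tris with 0.04% SDS, preincubated 15 min at 37° C with inhibitor before Suc-LLVY-AMC (100 μM final). AMC fluorescence read in the linear range; triplicates, IC50 from concentration series.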

Experiment [2] addresses T2, proteasome in Molt-4 cells (human leukemia) (Homo sapiens, UniProt P20618+P28074).
T2 sequence (P28074 60-263): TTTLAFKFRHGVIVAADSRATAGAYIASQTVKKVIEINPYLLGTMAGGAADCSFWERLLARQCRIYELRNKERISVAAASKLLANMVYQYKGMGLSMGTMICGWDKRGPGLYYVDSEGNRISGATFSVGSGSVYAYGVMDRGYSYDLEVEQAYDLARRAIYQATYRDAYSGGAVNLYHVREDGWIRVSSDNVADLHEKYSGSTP
T2 sequence (P20618 29-241): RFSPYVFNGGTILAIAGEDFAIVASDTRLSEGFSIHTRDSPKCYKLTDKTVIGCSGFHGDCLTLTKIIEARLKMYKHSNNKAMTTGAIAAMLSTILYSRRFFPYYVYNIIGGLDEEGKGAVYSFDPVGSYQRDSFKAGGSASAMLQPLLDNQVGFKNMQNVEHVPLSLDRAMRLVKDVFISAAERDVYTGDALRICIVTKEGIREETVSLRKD
In kind it is cell-based. A digest of the protocol: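 Intact Molt-4 cells (6×10^6 cells/mL) in HEPES-buffered saline were preincubated with inhibitor 15 min at 37 °C, then given cell-permeable MeOSuc-FLF-AFC at 25 μM final.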

The mark [3] stands for this setting: assay of Example E, inhibition of MOLT4; read-out: MOLT4 (EC50).

Counter-ions that a name gives are not always drawn. Like-named read-outs stand apart in the source and are kept apart here.

Turning to `CCc1ccc(CCC(=O)N[C@@H](CCCNC(=N)N[N+](=O)[O-])C(=O)N[C@@H](CC(C)C)B(O)O)cc1` [E.2.78, Boronic acid, [(1R)-1-[[(2S)-5-[[imino(nitroamino)methyl]amino]-2-[[3-(4-ethylphenyl)propanoyl]amino]-1-oxopentyl]amino]-3-methylbutyl]], in experiment [1], the IC50 is below 0.01 µM. The EC50 in experiment [2] (setting [3]) was in the range of 2 to 10 µM.
In the same order, the values of `CCCCCCCOc1ccc(NC(=O)N[C@@H](CCCNC(=N)N[N+](=O)[O-])C(=O)N[C@@H](CC(C)C)B(O)O)cc1` [E.2.79, Boronic acid, [(1R)-1-[[(2S)-5-[[imino(nitroamino)methyl]amino]-2-[3-[4-(heptyloxy)phenyl]-ureido]-1-oxopentyl]amino]-3-methylbutyl]] are below 0.01 µM and 0.2 to 2 µM.
Turning to `CC(=O)CCCC(=O)N[C@@H](CCCNC(=N)N[N+](=O)[O-])C(=O)N[C@@H](CC(C)C)B(O)O` [E.2.80, Boronic acid, [(1R)-1-[[(2S)-5-[[imino(nitroamino)methyl]amino]-2-[(5-oxohexanoyl)amino]-1-oxopentyl]amino]-3-methylbutyl]], in experiment [1], the IC50 is below 0.1 µM. The EC50 in experiment [2] (setting [3]) is 2 to 10 µM.
Compound `CCCCc1ccc(C(=O)N[C@H](C(=O)N[C@@H](CC(C)C)B(O)O)[C@@H](C)O)cc1` [E.3, Boronic Acid, [(1R)-1-[[(2S,3R)-3-hydroxy-2-[(4-butylbenzoyl)amino]-1-oxobutyl]amino]-3-methylbutyl]] came in with an IC50 in experiment [1] below 0.01 µM. In addition, the EC50 in experiment [2] (setting [3]) was below 0.2 µM.
Take `CC(C)C[C@H](NC(=O)[C@@H](NC(=O)c1ccc2ccccc2c1)[C@@H](C)O)B(O)O` [E.3.1, Boronic acid, [(1R)-1-[[(2S,3R)-3-hydroxy-2-[(2-naphthoyl)amino]-1-oxobutyl]amino]-3-methylbutyl]]: in experiment [1], the IC50 was below 0.01 µM. Also, the EC50 in experiment [2] (setting [3]) is below 0.2 µM.
Compound `Cc1ccc(OCC(=O)N[C@H](C(=O)N[C@@H](CC(C)C)B(O)O)[C@@H](C)O)cc1` [E.3.2] yielded an IC50 in experiment [1] below 0.01 µM. Besides, the 50% effective concentration (EC50) in experiment [2] (setting [3]) was below 0.2 µM.
For `CC(C)C[C@H](NC(=O)[C@@H](NS(=O)(=O)c1ccc2ccccc2c1)[C@@H](C)O)B(O)O` [E.3.4, Boronic acid, [(1R)-1-[[(2S,3R)-3-hydroxy-2-[(naphthalene-2-sulfonyl)amino]-1-oxobutyl]amino]-3-methylbutyl]], in that order: below 0.1 µM and below 0.2 µM.
With `CCCCCCCCC(C)(C)C(=O)N[C@H](C(=O)N[C@@H](CC(C)C)B(O)O)[C@@H](C)O` [E.3.6, Boronic acid, [(1R)-1-[[(2S,3R)-3-hydroxy-2-[(2,2 dimethyl-decanoyl)amino]-1-oxobutyl]amino]-3-methylbutyl]], the IC50 in experiment [1] was below 0.01 µM. Moreover, in experiment [2] (setting [3]), the EC50 is below 0.2 µM.
`CC(C)C[C@H](NC(=O)[C@@H](NC(=O)c1ccc(Oc2ccccc2)cc1)[C@@H](C)O)B(O)O` [E.3.7, Boronic acid, [(1R)-1-[[(2S,3R)-3-hydroxy-2-[(4-Phenoxybenzoyl)amino]-1-oxobutyl]amino]-3-methylbutyl]] registered a half-inhibitory concentration (IC50) in experiment [1] below 0.01 µM. For the same compound, the EC50 in experiment [2] (setting [3]) was below 0.2 µM.
As for `CCCOc1ccc(C(=O)N[C@H](C(=O)N[C@@H](CC(C)C)B(O)O)[C@@H](C)O)cc1` [E.3.8], the concentration for half-maximal inhibition (IC50) in experiment [1] is below 0.01 µM. Moreover, the EC50 in experiment [2] (setting [3]) is below 0.2 µM.
Compound `CC(C)C[C@H](NC(=O)[C@@H](NC(=O)c1cccc(-c2cccnc2)c1)[C@@H](C)O)B(O)O` [E.3.9, Boronic acid, [(1R)-1-[[(2S,3R)-3-hydroxy-2-[(3-pyridin-3-yl-benzoyl)amino]-1-oxobutyl]amino]-3-methylbutyl], hydrochloride salt] returned an IC50 in experiment [1] below 0.01 µM. The EC50 in experiment [2] (read-out: MOLT4 (EC50); assay of Example E, inhibition of MOLT4) was below 0.2 µM.
Compound `CCCOc1cccc(C(=O)N[C@H](C(=O)N[C@@H](CC(C)C)B(O)O)[C@@H](C)O)c1` [E.3.10, Boronic acid, [(1R)-1-[[(2S,3R)-3-hydroxy-2-[(3-propoxy-benzoyl)amino]-1-oxobutyl]amino]-3-methylbutyl]] returned an IC50 in experiment [1] below 0.01 µM. For the same compound, in experiment [2] (setting [3]), the EC50 is below 0.2 µM.
For `CC(C)C[C@H](NC(=O)[C@@H](NC(=O)c1ccc(-c2cccnc2)cc1)[C@@H](C)O)B(O)O` [E.4, Boronic Acid, [(1R)-1-[[(2S,3R)-3-hydroxy-2-[[4-(3-pyridyl)benzoyl]amino]-1-oxobutyl]amino]-3-methylbutyl]], in that order: below 0.01 µM and below 0.2 µM.
On to `CC(C)C[C@H](NC(=O)[C@@H](NC(=O)c1cnccn1)[C@@H](C)O)B(O)O` [E.4.1, Boronic acid, [(1R)-1-[[(2S,3R)-3-hydroxy-2-[(2-pyrazinecarbonyl)amino]-1-oxobutyl]amino]-3-methylbutyl]], for which the IC50 in experiment [1] was below 0.1 µM. Further, the EC50 in experiment [2] (setting [3]) lay within 0.2 to 2 µM.
In turn, `CCCCc1ccc(C(=O)N[C@H](C(=O)N[C@@H](CC(C)C)B(O)O)[C@@H](C)O)nc1` [E.4.2, Boronic acid, [(1R)-1-[[(2S,3R)-3-hydroxy-2-[(5-butyl-pyridine-2-carbonyl)amino]-1-oxobutyl]amino]-3-methylbutyl]] returned an IC50 in experiment [1] below 0.1 µM. In addition, the concentration giving a half-maximal response (EC50) in experiment [2] (setting [3]) is below 0.2 µM.
In the same order, the values of `CCCCc1ccc(C(=O)N[C@@H](CNC(=O)c2cnccn2)C(=O)N[C@@H](CC(C)C)B(O)O)cc1` [E.5, Boronic Acid, [(1R)-1-[[(2S)-3-(2-pyrazincarbonylamino)-2-[(4-butylbenzoylamino)]-1-oxopropyl]amino]-3-methylbutyl]] are below 0.01 µM and below 0.2 µM.
The compound `CCCCCCCCCC(=O)N[C@@H](CNC(C)=O)C(=O)N[C@@H](CC(C)C)B(O)O` [E.5.1, Boronic acid, [(1R)-1-[[(2S)-3-(acetylamino)-2-[(decanoylamino)]-1-oxopropyl]amino]-3-methylbutyl]] came in with an IC50 in experiment [1] below 0.01 µM. The EC50 in experiment [2] (setting [3]) was below 0.2 µM.
Regarding `CCCCc1ccc(C(=O)N[C@@H](CNC(=O)NCCC)C(=O)N[C@@H](CC(C)C)B(O)O)cc1` [E.5.2, Boronic acid, [(1R)-1-[[(2S)-3-(propylureido)-2-[(4-butyl)-benzoylamino]-1-oxopropyl]amino]-3-methylbutyl]], the IC50 in experiment [1] is below 0.01 µM. Besides, the EC50 in experiment [2] (setting [3]) is below 0.2 µM.
`CCCCc1ccc(C(=O)N[C@@H](CNC(=O)c2ccc(C)cc2)C(=O)N[C@@H](CC(C)C)B(O)O)cc1` [E.5.5]: in experiment [1], the IC50 is below 0.01 µM. Further, in experiment [2] (setting [3]), the EC50 is below 0.2 µM.
With `CCCCc1ccc(C(=O)N[C@@H](CNC(=O)c2cccs2)C(=O)N[C@@H](CC(C)C)B(O)O)cc1` [E.5.7, Boronic acid, [(1R)-1-[[(2S)-3-[(thien-2-ylcarbonyl)amino]-2-[(4-butylbenzoylamino)]-1-oxopropyl]amino]-3-methylbutyl]], the IC50 in experiment [1] was below 0.01 µM. The EC50 in experiment [2] (setting [3]) was below 0.2 µM.
In experiment [1], `CCCCCCCCCC(=O)N[C@@H](CNC(=O)c1cccs1)C(=O)N[C@@H](CC(C)C)B(O)O` [E.5.9] gave an IC50 below 0.01 µM. Also, the EC50 in experiment [2] (setting [3]) is below 0.2 µM.
For `CCCCCC(=O)NC[C@H](NC(=O)c1ccc(CCCC)cc1)C(=O)N[C@@H](CC(C)C)B(O)O` [E.5.10, Boronic acid, [(1R)-1-[[(2S)-3-(hexanoylamino)-2-[(4-butylbenzoylamino)]-1-oxopropyl]amino]-3-methylbutyl]], in that order: below 0.01 µM and below 0.2 µM.
In turn, `CCCCCCCCCC(=O)N[C@@H](CNS(=O)(=O)c1ccc(F)cc1)C(=O)N[C@@H](CC(C)C)B(O)O` [E.5.12, Boronic acid, [(1R)-1-[[(2S)-3-[4-fluoro-benzenesulfonamide]-2-[(decanoyl)amino]-1-oxopropyl]amino]-3-methylbutyl]] returned an IC50 in experiment [1] below 0.01 µM. Also, the EC50 in experiment [2] (setting [3]) was below 0.2 µM.
In experiment [1], `CCCCCCCCCC(=O)N[C@@H](CNC(=O)CCCCC)C(=O)N[C@@H](CC(C)C)B(O)O` [E.5.13, Boronic acid, [(1R)-1-[[(2S)-3-(hexanonylamino)-2-[(decanoylamino)]-1-oxopropyl]amino]-3-methylbutyl]] gave an IC50 below 0.01 µM. Also, the EC50 in experiment [2] (setting [3]) was below 0.2 µM.
For `CCCCc1ccc(C(=O)N[C@@H](CNC(=O)c2cccnc2)C(=O)N[C@@H](CC(C)C)B(O)O)cc1` [E.5.18, Boronic acid, [(1R)-1-[[(2S)-3-(nicotinoylamino)-2-[(4-butylbenzoylamino)]-1-oxopropyl]amino]-3-methylbutyl]], in that order: below 0.01 µM and below 0.2 µM.
For `CCCCc1ccc(C(=O)N[C@@H](CNC(=O)Nc2ccccc2)C(=O)N[C@@H](CC(C)C)B(O)O)cc1` [E.5.19, Boronic acid, [(1R)-1-[[(2S)-3-(3-phenylureido)-2-(4-butylbenzoylamino)-1-oxopropyl]amino]-3-methylbutyl]], in that order: below 0.01 µM and below 0.2 µM.
In experiment [1], `CCCCCCCCCC(=O)N[C@@H](CNC(=O)Nc1ccccc1)C(=O)N[C@@H](CC(C)C)B(O)O` [E.5.21, Boronic acid, [(1R)-1-[[(2S)-3-(3-phenylureido)-2-(decanoylamino)-1-oxopropyl]amino]-3-methylbutyl]] gave an IC50 below 0.01 µM. In addition, the EC50 in experiment [2] (setting [3]) was below 0.2 µM.

The term IC50 denotes the concentration that gives 50% inhibition. Read a low IC50 as inhibition by little substance. What is called EC50 is the concentration needed to bring the measured effect to its halfway point.
